Values of other authors, collected in US7759386B2, “Pharmaceutical compositions of estrogenic agents” (Wyeth LLC, priority 2000, dated 2010).

Details: after 1 year of storage; best antioxidant system described; solid state, tablets

Compound: C=C1CC[C@H](O)C/C1=C/C=C1\CCC[C@]2(C)[C@@H]([C@H](C)CCCC(C)C)CC[C@@H]12 [cholecalciferol]
- original content remaining: 87.6%
